From patent US11214594B2, “Antimicrobial peptide having synergistic antibacterial effect with antibiotics on multidrug resistant bacteria, and use thereof” (priority 2016, dated 2022)
≈ marks a conversion by molar mass, not a printed value. Where a SMILES comes first, the peptide text is derived from it. [ ]: non-standard residue; d: D form.

What was measured:
E. coli [1] = test: microbe, parasite or virus in culture; assay type: cell-based, Escherichia coli; details: 16 h
In short: (§1)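 Broth microdilution in MH medium: bacterial strains diluted to 2×10^6 CFU were mixed with equal volumes of peptide serially diluted twofold in MH medium.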

MDREC 1229 [2] = test: microbe, parasite or virus in culture; assay type: cell-based, Escherichia coli
In short: as §1

MDREC 1238 = assay type: cell-based, Escherichia coli
In short: as §1

P. aeruginosa = test: microbe, parasite or virus in culture; assay type: cell-based, Pseudomonas aeruginosa
In short: as §1

MDRAB 12036 = assay type: cell-based, Acinetobacter baumannii
In short: as §1

S. typhimurium = test: microbe, parasite or virus in culture; assay type: cell-based, Salmonella typhimurium
In short: as §1

MDRST 8007 = test: Minimal inhibitory concentration (MIC), single agent; assay type: cell-based, Salmonella typhimurium; details: agent alone
In short: as §1

MDRST 8009 = assay type: cell-based, Salmonella typhimurium; details: agent alone
In short: as §1

S. epidermidis = test: microbe, parasite or virus in culture; assay type: cell-based, Staphylococcus epidermidis
In short: as §1

S. aureus = test: microbe, parasite or virus in culture; assay type: cell-based, Staphylococcus aureus
In short: as §1

MRSA 3114 = assay type: cell-based, Staphylococcus aureus; details: 3114
In short: as §1

MRSA 3126 = assay type: cell-based, Staphylococcus aureus; details: 3126
In short: as §1

E. coli [3] = test: MIC of antibiotic during combined treatment with antimicrobial peptide; assay type: cell-based, Escherichia coli; details: for Antibiotic MIC, Erythromycin / Antibiotic MIC, Linezolid / Antibiotic MIC, Vancomycin: E. coli
In short: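 Using MH broth, we determined combination MICs by titrating the antibiotic into wells and then repeating under the reverse dilution scheme.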

MDREC 1229 [4] = test: as above; assay type: cell-based, Escherichia coli
In short: (§2)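 Broth microdilution in MH medium; strains were diluted to 2×10^6 CFU per ml before plating. Peptide was serially diluted stepwise at 2:1 starting from its MIC, and MH-diluted antibiotic was then added to determine MIC. The reversed arrangement was also tested.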

A. baumannii = test: MIC of antimicrobial peptide during combined treatment with antibiotic; assay type: cell-based, Acinetobacter baumannii
In short: as §2

MDRAB 12035 = test: as above; assay type: cell-based, Acinetobacter baumannii
In short: as §2

[5] = peptide treatment concentration 1 μg/ml
[6] = peptide treatment concentration 2 μg/ml
[7] = peptide treatment concentration 4 μg/ml
[8] = peptide treatment concentration 6 μg/ml
[9] = peptide treatment concentration 8 μg/ml
[10] = peptide treatment concentration 16 μg/ml
[11] = peptide treatment concentration 32 μg/ml
[12] = peptide treatment concentration 64 μg/ml
[13] = erythromycin 4 μg/ml (Conc./MIC 1/8)
[14] = erythromycin 8 μg/ml (Conc./MIC 1/4)
[15] = erythromycin 16 μg/ml (Conc./MIC 1/2)
[16] = erythromycin 32 μg/ml (Conc./MIC 1)
[17] = vancomycin 512 μg/ml (Conc./MIC 1/2)
[18] = vancomycin 1024 μg/ml (Conc./MIC 1)

CC[C@H](C)[C@H](NC(=O)[C@H](CCCCN)NC(=O)[C@H](Cc1c[nH]c2ccccc12)NC(=O)[C@@H](N)CCCNC(=N)N)C(=O)N[C@@H](Cc1ccccc1)C(=O)N[C@@H](CCCCN)C(=O)N[C@@H](CCCCN)C(=O)N[C@H](C(=O)N[C@H](CCCCN)C(=O)N[C@@H](CCCCN)C(=O)N[C@@H](CC(C)C)C(=O)N[C@@H](CC(C)C)C(=O)N[C@@H](Cc1c[nH]cn1)C(=O)N[C@@H](CCCCN)C(=O)N[C@@H](C)C(=O)N[C@@H](CCCCN)C(=O)N[C@@H](CCCCN)C(=O)N[C@@H](Cc1c[nH]c2ccccc12)C(N)=O)[C@@H](C)CC [PapMA-18, RWK IFK KIk KLL HKA KKW-NH2] (H-RWKIFKKI[dK]KLLHKAKKW-NH2; N-terminus assumed)
Minimal inhibitory concentration MIC (E. coli [1]): 64 µg/mL (≈ 26.9 µM) | Minimal inhibitory concentration MIC (MDREC 1229 [2]): 64 µg/mL (≈ 26.9 µM) | Peptide MIC, peptide alone (MDREC 1229 [2]): 64 µg/mL | Minimal inhibitory concentration MIC (MDREC 1238): 64 µg/mL (≈ 26.9 µM) | Minimal inhibitory concentration MIC (P. aeruginosa): 32 µg/mL (≈ 13.5 µM) | Minimal inhibitory concentration MIC (MDRAB 12036): 32 µg/mL (≈ 13.5 µM) | Minimal inhibitory concentration MIC (S. typhimurium): 32 µg/mL (≈ 13.5 µM) | Minimal inhibitory concentration MIC (MDRST 8007): 64 µg/mL (≈ 26.9 µM) | Minimal inhibitory concentration MIC (MDRST 8009): 64 µg/mL (≈ 26.9 µM) | Minimal inhibitory concentration MIC (S. epidermidis): >128 µg/mL | Minimal inhibitory concentration MIC (S. aureus): >128 µg/mL | Minimal inhibitory concentration MIC (MRSA 3114): >128 µg/mL | Minimal inhibitory concentration MIC (MRSA 3126): >128 µg/mL | Synergistic effect of antibacterial activity with existing antibiotics compared with PapMA-1 (E. coli [3]; E. coli and MDREC1229): higher level than the PapMA-1 peptide | Antibiotic MIC, Erythromycin (E. coli [3]; erythromycin combined with peptide at 1 μg/ml): 128 µg/mL | Antibiotic MIC, Erythromycin (E. coli [3]; erythromycin combined with peptide at 2 μg/ml): 32 µg/mL | Antibiotic MIC, Erythromycin (E. coli [3]; erythromycin combined with peptide at 4 μg/ml): 8 µg/mL | Antibiotic MIC, Erythromycin (E. coli [3]; erythromycin combined with peptide at 6 μg/ml): 1 µg/mL | Antibiotic MIC, Erythromycin (E. coli [3]; erythromycin combined with peptide at 8 μg/ml): 1 µg/mL | Antibiotic MIC, Erythromycin (E. coli [3]; erythromycin combined with peptide at 16 μg/ml): 0.25 µg/mL | Antibiotic MIC, Erythromycin (E. coli [3]; erythromycin combined with peptide at 32 μg/ml): 0.125 µg/mL | Antibiotic MIC, Erythromycin (E. coli [3]; erythromycin combined with peptide at 64 μg/ml): 0 µg/mL | Antibiotic MIC, Linezolid (E. coli [3]; linezolid combined with peptide at 1 μg/ml): >128 µg/mL | Antibiotic MIC, Linezolid (E. coli [3]; linezolid combined with peptide at 2 μg/ml): >128 µg/mL | Antibiotic MIC, Linezolid (E. coli [3]; linezolid combined with peptide at 4 μg/ml): 64 µg/mL | Antibiotic MIC, Linezolid (E. coli [3]; linezolid combined with peptide at 6 μg/ml): 16 µg/mL | Antibiotic MIC, Linezolid (E. coli [3]; linezolid combined with peptide at 8 μg/ml): 8 µg/mL | Antibiotic MIC, Linezolid (E. coli [3]; linezolid combined with peptide at 16 μg/ml): 8 µg/mL | Antibiotic MIC, Linezolid (E. coli [3]; linezolid combined with peptide at 32 μg/ml): 4 µg/mL | Antibiotic MIC, Linezolid (E. coli [3]; linezolid combined with peptide at 64 μg/ml): 0 µg/mL | Antibiotic MIC, Vancomycin (E. coli [3]; vancomycin combined with peptide at 1 μg/ml): >128 µg/mL | Antibiotic MIC, Vancomycin (E. coli [3]; vancomycin combined with peptide at 2 μg/ml): >128 µg/mL | Antibiotic MIC, Vancomycin (E. coli [3]; vancomycin combined with peptide at 4 μg/ml): >128 µg/mL | Antibiotic MIC, Vancomycin (E. coli [3]; vancomycin combined with peptide at 6 μg/ml): 32 µg/mL | Antibiotic MIC, Vancomycin (E. coli [3]; vancomycin combined with peptide at 8 μg/ml): 16 µg/mL | Antibiotic MIC, Vancomycin (E. coli [3]; vancomycin combined with peptide at 16 μg/ml): 8 µg/mL | Antibiotic MIC, Vancomycin (E. coli [3]; vancomycin combined with peptide at 32 μg/ml): 4 µg/mL | Antibiotic MIC, Vancomycin (E. coli [3]; vancomycin combined with peptide at 64 μg/ml): 0 µg/mL | Antibiotic MIC, Erythromycin (MDREC 1229 [4]; [5]): >128 µg/mL | Antibiotic MIC, Linezolid (MDREC 1229 [4]; [5]): >128 µg/mL | Antibiotic MIC, Vancomycin (MDREC 1229 [4]; [5]): >128 µg/mL | Antibiotic MIC, Erythromycin (MDREC 1229 [4]; [6]): 32 µg/mL | Antibiotic MIC, Linezolid (MDREC 1229 [4]; [6]): >128 µg/mL | Antibiotic MIC, Vancomycin (MDREC 1229 [4]; [6]): >128 µg/mL | Antibiotic MIC, Erythromycin (MDREC 1229 [4]; [7]): 16 µg/mL | Antibiotic MIC, Linezolid (MDREC 1229 [4]; [7]): 64 µg/mL | Antibiotic MIC, Vancomycin (MDREC 1229 [4]; [7]): >128 µg/mL | Antibiotic MIC, Erythromycin (MDREC 1229 [4]; [8]): 4 µg/mL | Antibiotic MIC, Linezolid (MDREC 1229 [4]; [8]): 32 µg/mL | Antibiotic MIC, Vancomycin (MDREC 1229 [4]; [8]): 32 µg/mL | Antibiotic MIC, Erythromycin (MDREC 1229 [4]; [9]): 2 µg/mL | Antibiotic MIC, Linezolid (MDREC 1229 [4]; [9]): 16 µg/mL | Antibiotic MIC, Vancomycin (MDREC 1229 [4]; [9]): 16 µg/mL | Antibiotic MIC, Erythromycin (MDREC 1229 [4]; [10]): 1 µg/mL | Antibiotic MIC, Linezolid (MDREC 1229 [4]; [10]): 8 µg/mL | Antibiotic MIC, Vancomycin (MDREC 1229 [4]; [10]): 8 µg/mL | Antibiotic MIC, Erythromycin (MDREC 1229 [4]; [11]): 0.5 µg/mL | Antibiotic MIC, Linezolid (MDREC 1229 [4]; [11]): 4 µg/mL | Antibiotic MIC, Vancomycin (MDREC 1229 [4]; [11]): 4 µg/mL | Antibiotic MIC, Erythromycin (MDREC 1229 [4]; [12]): 0 µg/mL | Antibiotic MIC, Linezolid (MDREC 1229 [4]; [12]): 0 µg/mL | Antibiotic MIC, Vancomycin (MDREC 1229 [4]; [12]): 0 µg/mL | Peptide MIC during treatment with antibiotic (A. baumannii; [13]): 4 µg/mL | Peptide MIC during treatment with antibiotic (A. baumannii; [14]): 4 µg/mL | Peptide MIC during treatment with antibiotic (A. baumannii; [15]): 4 µg/mL | Peptide MIC during treatment with antibiotic (A. baumannii; [16]): 0 µg/mL | Peptide MIC during treatment with antibiotic (A. baumannii; linezolid 32 μg/ml (Conc./MIC 1/8)): 8 µg/mL | Peptide MIC during treatment with antibiotic (A. baumannii; linezolid 64 μg/ml (Conc./MIC 1/4)): 4 µg/mL | Peptide MIC during treatment with antibiotic (A. baumannii; linezolid […] (Conc./MIC 1)): 0 µg/mL | Peptide MIC during treatment with antibiotic (A. baumannii; linezolid […] (Conc./MIC 1/2)): 2 µg/mL | Peptide MIC during treatment with antibiotic (A. baumannii; [17]): 0.25 µg/mL | Peptide MIC during treatment with antibiotic (A. baumannii; [18]): 0 µg/mL | Peptide MIC during treatment with antibiotic (A. baumannii; vancomycin […] (Conc./MIC 1/4)): 0.5 µg/mL | Peptide MIC during treatment with antibiotic (A. baumannii; vancomycin […] (Conc./MIC 1/8)): 4 µg/mL | Peptide MIC during treatment with erythromycin (MDRAB 12035; [13]): 4 µg/mL | Peptide MIC during treatment with erythromycin (MDRAB 12035; [14]): 4 µg/mL | Peptide MIC during treatment with erythromycin (MDRAB 12035; [15]): 4 µg/mL | Peptide MIC during treatment with erythromycin (MDRAB 12035; [16]): 0 µg/mL | Peptide MIC during treatment with linezolid (MDRAB 12035; linezolid 64 μg/ml (Conc./MIC 1/8)): 4 µg/mL | Peptide MIC during treatment with linezolid (MDRAB 12035; linezolid 512 μg/ml (Conc./MIC 1)): 0 µg/mL | Peptide MIC during treatment with linezolid (MDRAB 12035; linezolid […] (Conc./MIC 1/2)): 1 µg/mL | Peptide MIC during treatment with linezolid (MDRAB 12035; linezolid […] (Conc./MIC 1/4)): 4 µg/mL | Peptide MIC during treatment with vancomycin (MDRAB 12035; [17]): 2 µg/mL | Peptide MIC during treatment with vancomycin (MDRAB 12035; [18]): 1 µg/mL | Peptide MIC during treatment with vancomycin (MDRAB 12035; vancomycin […] (Conc./MIC 1/4)): 4 µg/mL | Peptide MIC during treatment with vancomycin (MDRAB 12035; vancomycin […] (Conc./MIC 1/8)): 4 µg/mL
